Test results reported in ChEMBL document CHEMBL1130916, “Design and synthesis of conformationally-constrained MMP inhibitors” (Bioorg Med Chem Lett, 1998).

Tests used:
Stromelysin-1 = Stromelysin-1 (Homo sapiens, UniProt P08254); assay: Inhibition of matrix metalloprotease-3 (MMP-3)
Interstitial collagenase = target: T1, Interstitial collagenase (Homo sapiens, UniProt P03956); assay: Inhibition of matrix metalloprotease-1 (MMP-1)
T1 sequence (P03956 whole entry): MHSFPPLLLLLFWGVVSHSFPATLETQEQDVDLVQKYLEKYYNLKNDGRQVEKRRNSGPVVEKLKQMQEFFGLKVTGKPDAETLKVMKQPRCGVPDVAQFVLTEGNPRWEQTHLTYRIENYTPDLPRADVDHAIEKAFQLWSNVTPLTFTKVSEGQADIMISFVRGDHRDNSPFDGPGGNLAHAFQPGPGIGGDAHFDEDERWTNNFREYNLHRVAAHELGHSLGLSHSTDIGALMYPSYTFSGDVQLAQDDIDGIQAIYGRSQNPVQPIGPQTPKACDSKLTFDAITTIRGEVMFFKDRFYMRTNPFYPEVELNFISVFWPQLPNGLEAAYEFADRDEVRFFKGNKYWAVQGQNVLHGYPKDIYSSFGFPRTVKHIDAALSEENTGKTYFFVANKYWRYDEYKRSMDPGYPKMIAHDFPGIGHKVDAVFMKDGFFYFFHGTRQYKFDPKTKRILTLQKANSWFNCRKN

Stromelysin-1, sequence (P08254 whole entry): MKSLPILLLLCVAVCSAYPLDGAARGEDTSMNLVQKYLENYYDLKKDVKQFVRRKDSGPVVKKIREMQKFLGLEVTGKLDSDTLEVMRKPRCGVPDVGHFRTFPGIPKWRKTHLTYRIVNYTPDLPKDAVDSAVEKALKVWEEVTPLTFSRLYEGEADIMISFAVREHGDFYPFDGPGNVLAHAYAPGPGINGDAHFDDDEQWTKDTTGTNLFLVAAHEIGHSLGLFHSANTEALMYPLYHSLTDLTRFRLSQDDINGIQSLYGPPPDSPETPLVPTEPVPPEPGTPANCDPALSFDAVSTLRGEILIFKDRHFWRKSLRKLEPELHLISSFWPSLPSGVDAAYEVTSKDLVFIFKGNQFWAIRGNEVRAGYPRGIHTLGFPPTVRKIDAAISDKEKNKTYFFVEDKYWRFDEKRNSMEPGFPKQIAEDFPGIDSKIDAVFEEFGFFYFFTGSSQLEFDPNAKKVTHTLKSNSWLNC

Row | SMILES | IC50 (Stromelysin-1) [nM] | IC50 (Interstitial collagenase) [nM]
1 | CCC[C@@H](C(=O)NO)[C@@H](CC(C)C)C(=O)N[C@H]1CCCCN(CCOC)C1=O | 94 | 83
2 | CC(C)C[C@H](CC(=O)NO)C(=O)N[C@H]1CCCCN(CCOc2ccccc2)C1=O | 518 | 117
3 | CC(C)C[C@H](CC(=O)NO)C(=O)N[C@H]1CCCCNC1=O | 11700 | 3900
4 | CC(C)C[C@H](CC(=O)NO)C(=O)N[C@H]1CCCCN(CCCOc2ccccc2)C1=O | 1420 | 140
5 | CCCCCCCC[C@@H](C(=O)N[C@H]1CCCCN(CCOC)C1=O)[C@@H](C)C(=O)NO | 30 | 112
6 | COCCN1CCCC[C@H](NC(=O)[C@H](CC(C)C)[C@@H](CCCO)C(=O)NO)C1=O |  | 51
7 | CCCCCCCCC(C(=O)N[C@H]1CCCCN(CCOC)C1=O)C(C)C(=O)NO (single isomer, unassigned) | 108 | 4360

Further lines, results first:

Row | IC50 (Stromelysin-1) [nM] | IC50 (Interstitial collagenase) [nM] | SMILES
8 | 1040 | 11 | CCCCCCCC[C@H](CC(=O)NO)C(=O)N[C@H]1CCCCN(CC(=O)OC)C1=O
9 | 21 | 57 | CCCCCCCC[C@@H](C(=O)N[C@H]1CCCCN(CC(=O)OC)C1=O)[C@@H](C)C(=O)NO
10 | 215 | 49 | COC(=O)CN1CCCC[C@H](NC(=O)[C@H](CC(C)C)[C@@H](C)C(=O)NO)C1=O
11 | 824 | 129 | CCCCC[C@H](CC(=O)NO)C(=O)N[C@H]1CCCCN(CC(=O)OC)C1=O
12 | 58 | 96 | CCC[C@@H](C(=O)NO)[C@@H](CC(C)C)C(=O)N[C@H]1CCCCN(CC(=O)OC)C1=O
13 | 2900 | 225 | COC(=O)CN1CCCC[C@H](NC(=O)[C@@H](CC(=O)NO)CC(C)C)C1=O
14 | 250 | 1890 | CCCCCCCC[C@H](CC(=O)NO)C(=O)N[C@H]1CCCCN(CCOC)C1=O
